According to US7094524B2, “Thermally development imaging materials having backside stabilizers” (Eastman Kodak Company, priority 2003, dated 2006):

Assay: pH of 0.005 molar solution in 15% methanol/85% water
Format: physicochemical
From the text: TABLE I also includes vapor pressure (VP) and pKa values for the various backside stabilizers.

SMILES	pH
C1CNCCN1 [AB-1]	10.4
C1CN2CCN1CC2 [AB-2]	9.8
CN(C)C(=N)N(C)C [AB-3]	11.8
OCCN(CCO)CCO [AB-5]	9.1
C1CCC2=NCCCN2CC1 [AB-6, 1,8-diazabicyclo[5.4.0]undec-7-ene]	11.8
c1ccc(Nc2ccccn2)nc1 [AB-7]	8.5
N=C(Nc1ccccc1)Nc1ccccc1 [AB-8]	10.6
c1ccc(CN(Cc2ccccc2)Cc2ccccc2)cc1 [AB-9]	8.6
